Experimental data as given in patent publication US20250320198A1, “SALT OF ENDOTHELIN A (ETA) RECEPTOR ANTAGONIST COMPOUND, AND PREPARATION METHOD THEREFOR AND MEDICAL USE THEREOF” (SHENZHEN SALUBRIS PHARMACEUTICALS CO., LTD, priority 2022, published 2025).

Legend:
[1] = Research on compound microsome: prototype remaining and transformation to Atrasentan in human liver microsomes (+NADPH); assay type: in vitro ADME; settings: human liver microsome (+NADPH), 37° C.
Description: Human liver microsomes were all purchased from Rild Liver Disease Research (Shanghai) Co., Ltd.
Reagents: dimethyl sulfoxide (DMSO), acetonitrile, formic acid, and propranolol (internal standard) are all commercially available.
Instrument: Thermo Fisher Scientific LC-MS (U300 UPLC, TSQ QUANTUMN ULTRA triple quadrupole mass spectrometer).
A certain amount of compound was precisely weighed and dissolved in DMSO to prepare a 10 mM stock solution, and the stock solution was diluted with a diluent (ACN:H2O=1:1) to a 100 μM working solution, and then diluted with a 0.1 M potassium phosphate buffer solution to a 3 μM administration solution for later use. 75 μL of liver microsomes were taken and added into 925 μL of a 0.1 M potassium phosphate buffer solution to be mixed uniformly to obtain a 1.5 mg/mL liver microsome suspension, and the liver microsome suspension was pre-incubated at 37° C. for 10 minutes. Preparation at 0 o'clock: 15 μL of the above liver microsome suspension was taken and added into a 6 mM NADPH solution, 150 μL of a propranolol acetonitrile solution was added immediately for precipitation, and then 15 μL of the above administration solution was added and mixed uniformly for later use. Preparation of samples at 20 minutes and 60 minutes: 15 μL of the administration solution was taken, 15 μL of the liver microsome suspension and 15 μL of the 6 mM NADPH solution were added and mixed uniformly, and a mixture was incubated at 37° C. for 20 minutes and 60 minutes, respectively. The preparation of the above samples was carried out using dual-pore parallel operation. When the above samples are incubated to the relevant time point, 150 μL of the propranolol acetonitrile solution was added to terminate the reaction. All the above samples were centrifuged at 4000 rpm for 5 minutes, and 100 μL of a supernatant was taken, added into 100 μL of ultrapure water and mixed uniformly for LC-MS/MS analysis. LC-MS/MS detection conditions are as follows:
Chromatographic column: Waters ACQUITY™ PREMIER HSS T3, 50*2.1 mm, 1.8 μm.
Mobile phase: water (0.1% formic acid)—acetonitrile. Perform gradient elution according to the table below.
An initial 0 o'clock was taken as 100%, a relative residual content of the drug at each time point was calculated, and each time point of Atrasentan was taken as 100% to calculate the relative amount of transformation of the compound in the embodiment to Atrasentan.

[2] = Pharmacokinetic study of compound in rats (Embodiment 14), intragastric administration; assay type: in vivo; settings: SD rats
Description: SD rats: male, 200-300 g, purchased from Beijing Vital River Laboratory Animal Technology Co., Ltd.
Reagents: dimethyl sulfoxide (DMSO), polyethylene glycol 400 (PEG-400), normal saline, heparin, acetonitrile, formic acid, and propranolol (internal standard) are all commercially available.
Instrument: Thermo Fisher Scientific LC-MS/MS (U300 UPLC, TSQ QUANTUMN ULTRA triple quadrupole mass spectrometer).
The compound was weighed and dissolved in a DMSO-PEG-400-normal saline (5:60:35, v/v/v) system. After intragastric administration to rats, 200 μL of venous blood was collected in a sodium-fluoride heparinized EP tube at 15 minutes, 30 minutes, 1 hour, 2 hours, 5 hours, 7 hours, and 24 hours after administration and centrifuged at 12000 rpm for 2 minutes. Plasma was taken and frozen and preserved at −80° C. for testing. A certain amount of samples for test was precisely weighed and dissolved in DMSO to 2 mg/mL as a stock solution. An appropriate amount of compound stock solution was accurately sucked, and diluted by adding acetonitrile to prepare a standard series solution. 20 μL of each of the above standard series solution was accurately sucked, 180 μL of blank plasma was added, and vortex mixing was performed to prepare plasma samples equivalent to plasma concentrations of 1 ng/mL, 3 ng/mL, 5 ng/mL, 10 ng/mL, 30 ng/mL, 100 ng/mL, 300 ng/mL, 1000 ng/mL, and 3000 ng/mL. […]

[3] = Study on stability of salts (chemical stability by HPLC); assay type: physicochemical
[4] = Study on hygroscopicity by dynamic vapor sorption (DVS); assay type: physicochemical
Description: Hygroscopicity of sulphate, phosphate, hydrochloride, and oxalate was evaluated using a dynamic vapor sorption (DVS). The test collected percentage changes in mass of samples under a constant temperature condition of 25° C. with changes in humidity.

Row | SMILES | Prototype remaining quantity (%) Mean ([1]; time 0 min (taken as 100%)) | Prototype remaining quantity (%) Mean ([1]; time 20 min) | Prototype remaining quantity (%) Mean ([1]; time 60 min) | Absorption after intragastric administration compared with Atrasentan (in words) [2] | Exposure level in rats compared with the same dosage of Atrasentan (in words) [2] | Stability (in words) ([3]; 25° C./60% RH and 40° C./75% RH, one week) | Purity (area %) ([3]; 25° C./60% RH, one week) | Purity (area %) ([3]; 40° C./75% RH, one week) | Purity (area %) ([3]; Start) | Hygroscopicity (in words) ([4]; 25° C.) | Vapor sorption ([4]; 25° C./80% RH)
1 | CCCCN(CCCC)C(=O)CN1C[C@H](c2ccc3c(c2)OCO3)[C@@H](C(=O)OC(C)OC(=O)OC2CC2)[C@@H]1c1ccc(OC)cc1 (stereo partly drawn) [Compound 7, 1-[(cyclopropoxycarbonyl)oxy]ethyl-(2R,3R,4S)-4-(benzo[d][1,3]dioxolane-5-yl)-1-[2-(dibutylamino)-2-oxoethyl]-2-(4-methoxyphenyl)pyrrolidine-3-carboxylate] | 100.0% | 0.10% | 0.47% | not as good as that of Atrasentan | significantly lower than that of the same dosage of Atrasentan | – | – | – | – | – | –
2 | CCCCN(CCCC)C(=O)CN1C[C@H](c2ccc3c(c2)OCO3)[C@@H](C(=O)OC(C)OC(=O)OC(C)C)[C@@H]1c1ccc(OC)cc1 (some centres unmarked) [Phosphate] | – | – | – | – | – | good stability | 98.81 area % | 95.49 area % | 99.29 area % | lower hygroscopicity | 1.52%
